Values of other authors as cited in patent US5565606A, “Synthesis of peptide aminoalkylamides and peptide hydrazides by the solid-phase method” (Hoechst Aktiengesellschaft, priority 1986, dated 1996).
Where two headings read alike, the source gives them in different places.

Columns and labels:
[1] = system: amnesia induced by electric shock or scopolamine; settings: s.c. administration, mice; from EP-A 179 332
urge to groom and move = settings: rats, from EP-A 179 332
[2] = system: choline content in the striatum; settings: rats, s.c. administration of 10 μg; from EP-A 179 332

Substance: Met(O)-Glu-His-Phe-D-Lys-Phe-NH-(CH2)8 -NH2
- minimum effective dose, weakening of amnesia [1]: 0.03 µg/kg

Substance: benzyloxycarbonyl-D-Lys-Phe-NH-(CH2)8 -NH2.2HCl
- urge to groom and move (urge to groom and move; i.c.v. administration of 1 μg): the same action

Substance: benzyloxycarbonyl-Lys-Phe-OMe
- urge to groom and move (urge to groom and move; i.c.v. administration of 10 μg): cause the urge to groom and move
- choline content in the striatum [2]: increased
